Data: patent EP3693362B1, “PARASITIC PLANT GERMINATION REGULATOR” (National University Corporation Tokai National Higher …, priority 2017, dated 2019)

Experiments:
Assay in all cases: Affinity for strigolactone receptor, YLG probe competition (fluorescence)
Format in all cases: binding
Settings in all cases: competition with YLG, test range 0.01 to 10 µM, pH 7.0, read-out: IC50 values of test compounds
HTL9 = target: T1, HTL9 (Striga hermonthica, UniProt A0A0M4AGW0)
T1 sequence (A0A0M4AGW0 1-271): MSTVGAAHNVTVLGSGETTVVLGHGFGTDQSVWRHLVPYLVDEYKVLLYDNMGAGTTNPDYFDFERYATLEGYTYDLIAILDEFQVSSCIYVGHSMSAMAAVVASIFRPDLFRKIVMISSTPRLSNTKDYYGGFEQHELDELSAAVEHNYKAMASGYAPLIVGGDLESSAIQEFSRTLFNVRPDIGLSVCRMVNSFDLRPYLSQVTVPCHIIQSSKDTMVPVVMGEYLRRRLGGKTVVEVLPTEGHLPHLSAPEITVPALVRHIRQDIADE
Protocol: (§1) PTL 1 reports that the affinity of a test compound for the strigolactone receptor can be evaluated by reacting strigolactone with a probe for evaluation of affinity for a strigolactone receptor (e.g., YLG) in the presence of the test compound, and measuring the fluorescence emitted from the decomposition product of YLG. Therefore, the compounds synthesized in Example 1 were used as the test compounds, and the affinity for the strigolactone receptor was evaluated by a similar method to the above. The details are as follows.
(§2) An Arabidopsis thaliana strigolactone receptor (AtD14) was produced in accordance with a usual method. More specifically, cDNA of the receptor was obtained by RT-PCR, and expression and purification were carried out in E. coli. Additionally, Striga strigolactone receptors were produced by the method disclosed in PTL 1 (ShHTL1: amino acid SEQ ID NO: 1, ShHTL2: amino acid SEQ ID NO: 2, ShHTL3: amino acid SEQ ID NO: 3, ShHTL4: amino acid SEQ ID NO: 4, ShHTL5: amino acid SEQ ID NO: 5, ShHTLS: amino acid SEQ ID NO: 6, ShHTL7: amino acid SEQ ID NO: 7, ShHTLS: amino acid SEQ ID NO: 8, ShHTL9: amino acid SEQ ID NO: 9, ShHTL10: amino acid SEQ ID NO: 10, and ShHTL11: amino acid SEQ ID NO: 11.)
(§3) One hundred microliters of a reaction solution containing each of the obtained strigolactone receptors ([…]), YLG (final concentration: […]), and each of the test compounds (final concentration: 0.01 to 10 µM) or the control compound (5-deoxystrigol, final concentration: 0.01 to 10 µM) as a competitive compound (100 mM HEPES, 150 mM NaCl, pH: 7.0, 0.1% DMSO) was prepared and reacted in a 96 black-well plate (Greiner). Sixty after the initiation of the reaction, fluorescence was detected at an excitation wavelength of 480 nm and a detection wavelength of 520 nm using a fluorescence detector (SpectraMax i3, manufactured by Molecular Devices), and the fluorescence intensity was measured. Based on the measurement results of fluorescence intensity, a Lineweaver-Burk plot was created to calculate the Km values, and the IC50 values of each of the test compounds and the control compound, which are competitive compounds.
(§4) In Table 7, HTL1 to HTL11 refer to strigolactone receptors (SEQ ID NOs: 1 to 11), and AtD14 refer to the Arabidopsis thaliana strigolactone receptor.

HTL7 = target: T2, HTL7 (Striga hermonthica, UniProt A0A0M3PNA2)
T2 sequence (A0A0M3PNA2 1-271): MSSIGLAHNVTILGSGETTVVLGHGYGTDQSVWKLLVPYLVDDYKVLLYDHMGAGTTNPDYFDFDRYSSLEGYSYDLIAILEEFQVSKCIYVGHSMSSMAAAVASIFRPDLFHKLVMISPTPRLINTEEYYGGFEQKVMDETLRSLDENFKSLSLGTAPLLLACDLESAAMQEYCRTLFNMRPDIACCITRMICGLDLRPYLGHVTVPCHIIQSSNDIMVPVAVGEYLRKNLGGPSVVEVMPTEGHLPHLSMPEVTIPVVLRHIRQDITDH
Protocol: as §1, §2, §3, §4

HTL6 = target: T3, HTL6 (Striga hermonthica, UniProt A0A0M4AUV4)
T3 sequence (A0A0M4AUV4 1-271): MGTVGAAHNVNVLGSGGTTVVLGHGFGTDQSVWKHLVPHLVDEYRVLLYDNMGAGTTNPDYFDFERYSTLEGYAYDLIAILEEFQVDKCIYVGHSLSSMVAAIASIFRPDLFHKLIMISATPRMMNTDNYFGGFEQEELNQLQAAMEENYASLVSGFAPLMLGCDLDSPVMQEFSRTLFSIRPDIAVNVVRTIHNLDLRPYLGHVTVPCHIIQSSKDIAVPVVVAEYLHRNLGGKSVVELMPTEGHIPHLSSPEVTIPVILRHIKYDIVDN
Protocol: as §1, §2, §3, §4

HTL5 = target: T4, HTL5 (Striga hermonthica, UniProt A0A0M5I297)
T4 sequence (A0A0M5I297 1-271): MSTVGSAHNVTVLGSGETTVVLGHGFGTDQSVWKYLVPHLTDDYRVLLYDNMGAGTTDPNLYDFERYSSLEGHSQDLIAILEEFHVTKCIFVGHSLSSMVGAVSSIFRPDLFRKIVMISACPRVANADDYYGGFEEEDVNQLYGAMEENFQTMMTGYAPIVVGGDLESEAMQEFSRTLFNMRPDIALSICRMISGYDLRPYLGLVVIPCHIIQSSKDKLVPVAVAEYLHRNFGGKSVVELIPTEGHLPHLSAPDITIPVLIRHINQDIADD
Protocol: as §1, §2, §3, §4

HTL11 = target: T5, HTL11 (Striga hermonthica, UniProt A0A0M4AS18)
T5 sequence (A0A0M4AS18 1-268): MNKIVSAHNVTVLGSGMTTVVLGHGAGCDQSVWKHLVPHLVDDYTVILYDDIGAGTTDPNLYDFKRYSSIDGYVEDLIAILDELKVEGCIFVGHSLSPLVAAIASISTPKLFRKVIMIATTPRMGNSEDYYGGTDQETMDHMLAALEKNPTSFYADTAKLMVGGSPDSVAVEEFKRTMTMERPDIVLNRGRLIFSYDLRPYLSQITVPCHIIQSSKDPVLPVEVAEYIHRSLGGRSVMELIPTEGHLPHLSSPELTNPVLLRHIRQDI
Protocol: as §1, §2, §3, §4

HTL3 = target: T6, HTL3 (Striga hermonthica, UniProt A0A0M3PN85)
T6 sequence (A0A0M3PN85 1-276): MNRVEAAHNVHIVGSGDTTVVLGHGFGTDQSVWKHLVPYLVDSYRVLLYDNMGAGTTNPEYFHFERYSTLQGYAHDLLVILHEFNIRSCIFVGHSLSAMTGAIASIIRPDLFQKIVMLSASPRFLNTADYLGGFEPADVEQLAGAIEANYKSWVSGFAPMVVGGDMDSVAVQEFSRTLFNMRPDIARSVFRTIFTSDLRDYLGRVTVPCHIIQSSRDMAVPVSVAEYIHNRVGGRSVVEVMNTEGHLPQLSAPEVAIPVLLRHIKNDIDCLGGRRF
Protocol: as §1, §2, §3, §4

## CCCCOc1ccc(S(=O)(=O)N2CCN(C(=O)OC3C=C(C)C(=O)O3)CC2)cc1 (stereo not drawn) [Compound 1]
HTL9
  IC50: > 10000 nM
HTL7
  IC50: 310 nM
HTL6
  IC50: > 10000 nM
HTL5
  IC50: > 10000 nM
HTL11
  IC50: 1800 nM
HTL3
  IC50: > 10000 nM

## CCCCOc1ccc(S(=O)(=O)N2CCN(C(=O)OC3C=CC(=O)O3)CC2)cc1 (stereo not drawn) [Compound 13]
HTL9
  IC50: > 10000 nM
HTL7
  IC50: 750 nM
HTL6
  IC50: > 10000 nM
HTL5
  IC50: > 10000 nM
HTL11
  IC50: > 10000 nM
HTL3
  IC50: 2000 nM

## CC1=CC(OC(=O)NCc2ccccc2)OC1=O (stereo not drawn) [Comparison Compound 1, reference compound]
HTL9
  IC50: > 10000 nM
HTL7
  IC50: > 10000 nM
HTL6
  IC50: > 10000 nM
HTL5
  IC50: > 10000 nM
HTL11
  IC50: 660 nM
HTL3
  IC50: > 10000 nM

## CC1=CC(OC=C2C(=O)OC3C4=C(CCCC4(C)C)CC23)OC1=O (stereo not drawn) [5-Ddeoxystriqol, 5-deoxystrigol, reference compound]
HTL9
  IC50: 1200 nM
HTL7
  IC50: 120 nM
HTL6
  IC50: 190 nM
HTL5
  IC50: 3600 nM
HTL11
  IC50: 1600 nM
HTL3
  IC50: 9300 nM
